Experimental data published in patent US6753348B2, “BTK inhibitors and methods for their identification and use” (Parker Hughes Institute, priority 1998, dated 2004).

Tests used:
[1] = tested on: OVA-sensitized and challenged mice; experiment: Eosinophil infiltration in bronchoalveolar lavage of OVA challenged mice; format: in vivo, mouse; settings: ovalbumin sensitized and challenged mice, pretreatment
Source text: FIG. 29: Inhibition of eosinophil infiltration in bronchoalveolar lavage of OVA challenged mice by LFM-A8. The lungs of the mice were lavaged after methacholine challenge and eosinophil numbers were counted. The results of eosinophils are expressed as percent of total cell counts. The data points represent the mean±SEM values obtained from 5-6 mice. *P<0.05 compared to vehicle-treated control, as determined by Student's t test.
Assessment of Eosinophil Infiltration. After airway responsiveness measurements, lungs were lavaged thoroughly with 1 ml saline. The lavage fluid was centrifuged and the supernatant was removed. The cell pellet was resuspended in saline containing 0.1% BSA to give a final cell concentration of 0.1×10^6/ml. Cytospin smears made from the cell suspension were stained with Wright-Giemsa and the number of eosinophils were counted.

RBL-2H3 rat mast cells = experiment: IgE/FcεRI receptor mediated leukotriene C4 release, RBL-2H3 mast cells; format: cell-based; settings: RBL-2H3, IgE/DNP-BSA challenge, 30 min pre-incubation, 1-100 μM, N = 3-4, read-out: EC50 (mean ± SEM), inhibition of leukotriene C4 release
Procedure: Mast Cell Cultures. RBL-2H3 mast cells were a gift from Dr. Reuben P. Siraganian (Laboratory of Microbiology and Immunology, National Institute of Dental Research, National Institute of Health). The cells were maintained as monolayer cultures in 75- or 150-cm^2 flask in Eagle's essential medium supplemented with 20% fetal calf serum. Human fetal livers (16 to 21 weeks of gestational age) were obtained from prostaglandin-induced human abortuses. Subsequently, single cell suspensions were prepared and mononuclear cells were isolated by centrifugation on Ficoll-Hypaque gradients as described (Malaviya, R., et al., (1999) J Biol Chem, 274, 27028-27038). Isolated cells were cultured for 8 weeks in the presence of 100 ng/ml rhSCF, 2 ng/ml rhIL-4 (Malaviya, R., et al., (1999) J Biol Chem, 274, 27028-27038; Xia, H. Z., et al., (1997) J Immunol, 159, 2911-2921). Culture medium was replaced with fresh medium once a week for the first 2 weeks and twice a week thereafter. All human tissue specimens were used following the guidelines of the Parker Hughes Institute Institutional Review Board on the Use of Human Subjects in Research for secondary use of pathologic or surgical tissue. At the end of the 8 weeks the fetal liver derived human mast cell culture contained 70-90 percent mast cells, based on toluidine blue and tryptase staining (Xia, H. Z., et al., (1997) J Immunol, 159, 2911-2921).
Stimulation of Mast Cells. RBL-2H3 rat mast were sensitized with monoclonal anti-DNP IgE antibody (0.24 mg/ml) for 1 h at 37° C. in a 48-well tissue culture plate. Unbound IgE was removed by washing the cells with PIPES-buffered saline. After washing, PIPES-buffered saline containing 1 mM calcium chloride was added to the monolayers of the RBL-2H3 cells. The cells were challenged with 20 ng/ml DNP-BSA for 30 min at 37° C. The plate was centrifuged at 200 g for 10 min at 4° C. Supernatants were removed and saved. Fetal liver-derived human mast cells were resuspended in culture medium at a cell density of 5×10^6/ml and sensitized with human IgE (150 μg/ml) for 3 h at 4° C. After sensitization the cells were washed with tyrode buffer containing 1 mM calcium and 1 mM magnesium and challenged with mouse monoclonal anti-human IgE (40 μg/ml) for 30 min at 37° C. To study the effect of test drugs, RBL-2H3 rat mast cells or human mast cells were incubated with the drugs at the indicated concentrations or vehicle for 30 min prior to antigen challenge.
Mediator Release Assay. Leukotriene C4 levels were estimated in cell free supernatants of mast cells by immunoassay (Malaviya, R. and Abraham, S. N., (1995) Methods Enzymol, 253, 27-43).
Mast cells release large amounts of leukotrienes upon IgE receptor ligation. Because of the reported ability of LFM as a mast cell inhibitor, we utilized 13 analogues of LFM (Table 1) and examined their effect on IgE/FcεERI receptor mediated mast cell leukotriene C4 release. RBL-2H3 cells, a mucosal mast cell line, were treated with 5 different concentrations of the compounds ranging from 1 μM to 100 μM or vehicle for 30 min before challenge with antigen (DNP-BSA) at 37° C. Leukotriene C4 release was quantitated in the extracellular medium employing a previously described ELISA (Malaviya, R. and Abraham, S. N., (1995) Methods Enzymol, 253, 27-43).

JAK1 = JAK1 (Homo sapiens, UniProt P23458); experiment: Cell-free tyrosine kinase inhibition assay JAK1; format: biochemical
HCK = HCK (Homo sapiens, UniProt P08631); experiment: Cell-free tyrosine kinase inhibition assay HCK from transfected COS-7 cells; format: biochemical
[2] = tested on: B18.2, NALM-6 and ALL-1 cells; experiment: Chemosensitization to ceramide and vincristine, DNA fragmentation; format: cell-based; settings: 100 μM plus VCR 10 ng/ml or C2-CER 10 μM, 24 hours
[3] = biological target: EGF-Receptor Kinase (EGFR) (Homo sapiens, UniProt P00533); experiment: Cell-free tyrosine kinase inhibition assay EGFR; format: biochemical
JAK2 = experiment: Tyrosine kinase assay JAK2 as named in text; format: biochemical; settings: concentrations as high as 100 μg/ml (~278 μM)
[4] = biological target: T1, Insulin-Receptor Kinase (IRK) (Homo sapiens, UniProt P06213); experiment: Cell-free tyrosine kinase inhibition assay IRK from HepG2 cells; format: biochemical
T1 construct: IRK was immunoprecipitated from the lysates with an anti-IRb antibody

[5] = concentrations as high as 100 μg/ml (~278 μM)

T1 sequence (P06213 28-1382): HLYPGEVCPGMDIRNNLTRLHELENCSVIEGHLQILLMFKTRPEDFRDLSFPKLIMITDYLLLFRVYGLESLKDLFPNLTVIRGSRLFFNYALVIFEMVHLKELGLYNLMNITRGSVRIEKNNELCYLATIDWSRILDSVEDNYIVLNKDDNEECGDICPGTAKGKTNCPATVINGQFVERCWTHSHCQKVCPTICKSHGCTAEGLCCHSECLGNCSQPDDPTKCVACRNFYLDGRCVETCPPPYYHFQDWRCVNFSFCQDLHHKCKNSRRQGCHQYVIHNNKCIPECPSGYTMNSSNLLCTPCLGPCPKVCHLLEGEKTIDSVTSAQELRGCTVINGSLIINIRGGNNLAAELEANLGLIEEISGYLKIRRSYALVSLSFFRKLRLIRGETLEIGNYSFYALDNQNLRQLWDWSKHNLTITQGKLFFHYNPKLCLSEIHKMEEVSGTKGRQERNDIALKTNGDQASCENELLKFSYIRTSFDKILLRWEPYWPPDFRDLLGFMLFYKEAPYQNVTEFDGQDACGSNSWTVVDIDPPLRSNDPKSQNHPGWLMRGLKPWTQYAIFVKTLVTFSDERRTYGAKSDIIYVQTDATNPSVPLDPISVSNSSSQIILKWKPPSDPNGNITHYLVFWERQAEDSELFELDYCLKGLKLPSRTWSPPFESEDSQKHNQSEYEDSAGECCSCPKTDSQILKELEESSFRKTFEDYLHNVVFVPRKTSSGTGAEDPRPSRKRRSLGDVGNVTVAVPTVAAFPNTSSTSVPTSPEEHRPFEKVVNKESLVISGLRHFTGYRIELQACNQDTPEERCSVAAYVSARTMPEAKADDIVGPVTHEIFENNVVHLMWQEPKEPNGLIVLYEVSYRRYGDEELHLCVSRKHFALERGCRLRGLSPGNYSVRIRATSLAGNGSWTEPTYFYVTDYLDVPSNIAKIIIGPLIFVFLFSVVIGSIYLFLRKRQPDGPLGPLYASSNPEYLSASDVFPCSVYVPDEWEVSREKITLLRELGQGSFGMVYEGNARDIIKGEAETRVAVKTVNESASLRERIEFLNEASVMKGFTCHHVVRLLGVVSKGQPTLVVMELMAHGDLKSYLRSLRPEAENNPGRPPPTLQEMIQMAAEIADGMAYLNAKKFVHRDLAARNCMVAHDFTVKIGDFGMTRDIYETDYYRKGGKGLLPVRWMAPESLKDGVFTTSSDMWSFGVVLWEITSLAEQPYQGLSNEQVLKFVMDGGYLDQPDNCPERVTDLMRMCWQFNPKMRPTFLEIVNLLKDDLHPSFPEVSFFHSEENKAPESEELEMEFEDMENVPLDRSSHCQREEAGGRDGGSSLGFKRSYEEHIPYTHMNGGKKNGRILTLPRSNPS
EGF-Receptor Kinase (EGFR), sequence (P00533 25-1210, species assumed): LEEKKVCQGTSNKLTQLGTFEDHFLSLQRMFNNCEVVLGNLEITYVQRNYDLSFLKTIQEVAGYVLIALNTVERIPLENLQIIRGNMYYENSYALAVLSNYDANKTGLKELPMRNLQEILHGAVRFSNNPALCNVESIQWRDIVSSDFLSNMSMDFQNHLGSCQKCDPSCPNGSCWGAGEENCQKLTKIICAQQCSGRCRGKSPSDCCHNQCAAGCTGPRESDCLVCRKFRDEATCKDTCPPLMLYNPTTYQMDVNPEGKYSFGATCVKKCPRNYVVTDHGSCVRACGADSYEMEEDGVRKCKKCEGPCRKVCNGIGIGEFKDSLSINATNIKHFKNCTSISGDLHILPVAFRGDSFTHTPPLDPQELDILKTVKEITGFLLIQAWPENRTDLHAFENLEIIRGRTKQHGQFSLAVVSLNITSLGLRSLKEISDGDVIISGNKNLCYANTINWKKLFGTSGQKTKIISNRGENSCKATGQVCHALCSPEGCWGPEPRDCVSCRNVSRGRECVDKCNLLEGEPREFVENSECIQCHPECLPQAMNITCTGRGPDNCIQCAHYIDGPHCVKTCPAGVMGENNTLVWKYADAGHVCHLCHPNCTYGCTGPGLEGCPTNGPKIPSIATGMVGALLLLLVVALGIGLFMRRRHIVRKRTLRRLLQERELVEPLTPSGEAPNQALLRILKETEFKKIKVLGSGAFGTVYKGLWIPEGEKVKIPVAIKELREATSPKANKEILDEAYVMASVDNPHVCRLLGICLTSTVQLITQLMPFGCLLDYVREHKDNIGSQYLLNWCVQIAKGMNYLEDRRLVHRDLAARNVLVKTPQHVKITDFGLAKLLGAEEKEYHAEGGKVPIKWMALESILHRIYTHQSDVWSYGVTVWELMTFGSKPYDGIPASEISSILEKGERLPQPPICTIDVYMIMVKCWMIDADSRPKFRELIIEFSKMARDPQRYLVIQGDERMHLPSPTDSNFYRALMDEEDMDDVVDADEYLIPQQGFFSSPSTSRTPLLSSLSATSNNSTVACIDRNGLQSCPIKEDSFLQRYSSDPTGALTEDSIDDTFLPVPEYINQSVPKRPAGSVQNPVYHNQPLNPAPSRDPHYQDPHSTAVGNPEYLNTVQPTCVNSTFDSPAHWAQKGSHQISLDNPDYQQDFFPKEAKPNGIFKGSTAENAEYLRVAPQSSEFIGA
JAK1, sequence (P23458 whole entry, species assumed): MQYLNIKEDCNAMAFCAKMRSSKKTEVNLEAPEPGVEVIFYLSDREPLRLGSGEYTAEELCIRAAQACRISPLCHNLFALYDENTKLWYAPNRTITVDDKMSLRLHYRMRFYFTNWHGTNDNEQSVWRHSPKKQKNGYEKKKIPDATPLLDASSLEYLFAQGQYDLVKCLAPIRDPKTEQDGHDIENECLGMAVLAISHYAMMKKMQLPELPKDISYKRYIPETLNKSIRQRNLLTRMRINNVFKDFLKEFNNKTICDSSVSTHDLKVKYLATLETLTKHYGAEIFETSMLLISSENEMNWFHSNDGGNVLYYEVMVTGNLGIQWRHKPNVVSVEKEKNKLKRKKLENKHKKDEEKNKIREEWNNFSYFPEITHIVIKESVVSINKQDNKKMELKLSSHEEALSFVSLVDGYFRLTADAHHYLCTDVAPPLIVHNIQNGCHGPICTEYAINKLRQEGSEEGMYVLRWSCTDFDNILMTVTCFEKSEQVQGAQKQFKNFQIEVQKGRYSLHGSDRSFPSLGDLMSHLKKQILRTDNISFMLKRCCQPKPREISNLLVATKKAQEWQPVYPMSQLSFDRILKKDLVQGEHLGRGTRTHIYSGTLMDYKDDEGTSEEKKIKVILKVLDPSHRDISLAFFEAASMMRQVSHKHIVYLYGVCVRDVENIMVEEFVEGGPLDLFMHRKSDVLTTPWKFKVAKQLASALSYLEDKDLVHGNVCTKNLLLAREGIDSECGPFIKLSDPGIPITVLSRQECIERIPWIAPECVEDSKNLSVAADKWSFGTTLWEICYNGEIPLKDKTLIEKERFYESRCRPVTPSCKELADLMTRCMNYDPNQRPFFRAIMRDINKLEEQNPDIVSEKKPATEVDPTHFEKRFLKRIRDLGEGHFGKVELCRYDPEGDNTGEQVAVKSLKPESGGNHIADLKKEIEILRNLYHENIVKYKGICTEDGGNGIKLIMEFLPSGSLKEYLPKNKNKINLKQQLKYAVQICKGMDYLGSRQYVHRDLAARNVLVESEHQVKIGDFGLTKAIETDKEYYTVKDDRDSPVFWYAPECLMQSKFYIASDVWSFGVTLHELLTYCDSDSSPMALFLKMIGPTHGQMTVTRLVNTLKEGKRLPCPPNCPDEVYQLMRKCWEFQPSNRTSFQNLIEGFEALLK
HCK, sequence (P08631 whole entry, species assumed, the tested form may be a part): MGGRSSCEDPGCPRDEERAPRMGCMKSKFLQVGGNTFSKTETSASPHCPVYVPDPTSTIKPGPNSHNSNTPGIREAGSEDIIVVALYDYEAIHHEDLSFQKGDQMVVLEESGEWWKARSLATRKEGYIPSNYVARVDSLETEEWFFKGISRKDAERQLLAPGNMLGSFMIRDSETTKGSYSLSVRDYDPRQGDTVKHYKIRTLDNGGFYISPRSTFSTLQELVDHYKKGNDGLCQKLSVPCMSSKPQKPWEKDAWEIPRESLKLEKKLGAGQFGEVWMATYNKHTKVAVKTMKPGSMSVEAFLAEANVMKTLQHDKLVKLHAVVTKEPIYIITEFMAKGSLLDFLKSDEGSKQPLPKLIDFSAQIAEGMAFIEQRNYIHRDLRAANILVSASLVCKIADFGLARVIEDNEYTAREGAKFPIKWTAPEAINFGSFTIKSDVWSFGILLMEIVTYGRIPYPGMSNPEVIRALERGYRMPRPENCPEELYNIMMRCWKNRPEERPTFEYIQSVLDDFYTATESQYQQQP

| Structure (SMILES) | reduction of numbers of eosinophils in BAL fluid [1] [%] | EC50 (RBL-2H3 rat mast cells) [µM] | melting point [°C] | IC50 (JAK1) [µM] | effect on enzymatic activity of JAK1 (JAK1; [5]) | IC50 (HCK) [µM] | effect on enzymatic activity of HCK (HCK; [5]) | sensitivity to ceramide-induced and vincristine-induced apoptosis [2] | IC50 ([3]; EGFR) [µM] | effect on enzymatic activity of EGFR [3, 5] | effect on enzymatic activity of JAK2 (JAK2) | IC50 ([4]; IRK) [µM] | effect on enzymatic activity of IRK [4, 5] |
| --- | --- | --- | --- | --- | --- | --- | --- | --- | --- | --- | --- | --- | --- |
| CC(O)=C(C#N)C(=O)Nc1cccc(C(F)(F)F)c1 [LFM-A8, α-Cyano-β-hydroxy-β-methyl-N-[3-(trifluoromethyl)phenyl]-propenamide] | 80 | 28 ± 1 | 182 to 184 |  |  |  |  |  |  |  |  |  |  |
| C/C(O)=C(\C#N)C(=O)Nc1cc(Br)ccc1Br [LFM-A13, α-Cyano-β-hydroxy-β-methyl-N-(2,5-dibromophenyl)-propenamide] |  |  |  | > 278 | did not affect the enzymatic activity | > 278 | did not affect the enzymatic activity | enhances the sensitivity | > 278 | did not affect the enzymatic activity | did not affect the enzymatic activity | > 278 | did not affect the enzymatic activity |
